Assay results taken from the supplement of paper PMC7017272.
± gives the standard deviation of the averaged measurements.

Tests used:
Conditions in all cases: treatment time: 3 days
UT-SCC-24A = experiment: maximal % inhibition of viability relative to DMSO; higher = stronger effect
Experimental: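 HNSCC cell lines (500 cells/well, 384-well) were cultured on plastic, on top of (2D) or embedded (3D) in Matrigel or human leiomyoma matrix Myogel (500 ug/mL; Myogel 3D mixed with rat collagen I). Cells were treated for 3 days with 5 ten-fold concentrations of each drug, and viability was read by CellTiter-Glo. Viability was normalised to DMSO (0% inhibition) and 100 uM benzethonium chloride (100% inhibition) controls and fitted with the FIMM DSRT pipeline to give IC50 (nM), maximal % inhibition and the drug sensitivity score (DSS). Suffixes _1/_2/_3 on drug names are replicates.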

UT-SCC-24B [1] = experiment: drug sensitivity score (DSS); higher = more sensitive; extreme values may be limits of the assay
Outline: (§1)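 Viability of HPV-negative HNSCC cell lines was measured by CellTiter-Glo 2.0 luminescence. Cells were seeded at 500 cells/well in 384-well plates on plastic, on Matrigel- or Myogel-coated wells (500 µg/mL), or embedded in Matrigel or Myogel plus rat collagen I, then given compounds at five 10-fold concentrations for 3 days, with signals normalised to vehicle (0.1% DMSO) and cell-killing control wells. Fitting of percent-inhibition dose–response curves in the FIMM pipeline yielded IC50, maximal inhibition and drug sensitivity score.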

UT-SCC-28 [2] = experiment: as above
Outline: as §1

UT-SCC-40 [3] = experiment: as above
Outline: as §1

UT-SCC-44 [4] = experiment: as above
Outline: as §1

UT-SCC-73 [5] = experiment: as above
Outline: as §1

UT-SCC-81 [6] = experiment: as above
Outline: as §1

UT-SCC-8 [7] = experiment: as above
Outline: as §1

UT-SCC-106A = experiment: relative IC50 (midpoint of the fitted curve; maximal inhibition may be below 50%); higher = less potent
Outline: as §1

UT-SCC-14 = experiment: as above
Outline: as §1

UT-SCC-24B [8] = experiment: as above
Outline: as §1

UT-SCC-28 [9] = experiment: as above
Outline: as §1

UT-SCC-40 [10] = experiment: as above
Outline: as §1

UT-SCC-42A = experiment: as above
Outline: as §1

UT-SCC-42B = experiment: as above
Outline: as §1

UT-SCC-44 [11] = experiment: as above
Outline: as §1

UT-SCC-73 [12] = experiment: as above
Outline: as §1

UT-SCC-81 [13] = experiment: as above
Outline: as §1

UT-SCC-8 [14] = experiment: as above
Outline: as §1

[15] = culture condition: embedded in Matrigel
[16] = culture condition: embedded in Myogel + collagen I
[17] = culture condition: on top of Matrigel
[18] = culture condition: on top of Myogel
[19] = culture condition: plastic 2D (no matrix)

- relative IC50 (UT-SCC-106A; [15]): 4.51 nM
- relative IC50 (UT-SCC-106A; [16]): 10.1 nM
- relative IC50 (UT-SCC-106A; [17]): 5.7 nM
- relative IC50 (UT-SCC-106A; [18]): 15.6 nM
- relative IC50 (UT-SCC-106A; [19]): 5.69 nM
- relative IC50 (UT-SCC-14; [15]): 5.67 nM
- relative IC50 (UT-SCC-14; [17]): 8.29 nM
- relative IC50 (UT-SCC-14; [18]): 11.2 nM
- relative IC50 (UT-SCC-14; [19]): 6.77 nM
- relative IC50 (UT-SCC-24B [8]; [15]): 11 nM
- relative IC50 (UT-SCC-24B [8]; [16]): 9.4 nM
- relative IC50 (UT-SCC-24B [8]; [17]): 11.6 nM
- relative IC50 (UT-SCC-24B [8]; [18]): 15.8 nM
- relative IC50 (UT-SCC-24B [8]; [19]): 12.8 nM
- relative IC50 (UT-SCC-28 [9]; [15]): 2.99 nM
- relative IC50 (UT-SCC-28 [9]; [16]): 12.8 nM
- relative IC50 (UT-SCC-28 [9]; [17]): 5.19 nM
- relative IC50 (UT-SCC-28 [9]; [19]): 5.26 nM
- relative IC50 (UT-SCC-40 [10]; [15]): 5.31 nM
- relative IC50 (UT-SCC-40 [10]; [16]): 9.86 nM
- relative IC50 (UT-SCC-40 [10]; [17]): 5.3 nM
- relative IC50 (UT-SCC-40 [10]; [18]): 12.9 nM
- relative IC50 (UT-SCC-40 [10]; [19]): 11.7 nM
- relative IC50 (UT-SCC-42A; [15]): 15.6 nM
- relative IC50 (UT-SCC-42A; [16]): 16.6 nM
- relative IC50 (UT-SCC-42A; [17]): 13.2 nM
- relative IC50 (UT-SCC-42A; [18]): 16.4 nM
- relative IC50 (UT-SCC-42A; [19]): 11.5 nM
- relative IC50 (UT-SCC-42B; [15]): 6.88 nM
- relative IC50 (UT-SCC-42B; [17]): 19.3 nM
- relative IC50 (UT-SCC-42B; [18]): 36.6 nM
- relative IC50 (UT-SCC-42B; [19]): 31.4 nM
- relative IC50 (UT-SCC-44 [11]; [16]): 10.4 nM
- relative IC50 (UT-SCC-44 [11]; [17]): 5.9 nM
- relative IC50 (UT-SCC-44 [11]; [18]): 9.17 nM
- relative IC50 (UT-SCC-44 [11]; [19]): 14.4 nM
- relative IC50 (UT-SCC-73 [12]; [15]): 6.73 nM
- relative IC50 (UT-SCC-73 [12]; [17]): 6.72 nM
- relative IC50 (UT-SCC-73 [12]; [18]): 9.27 nM
- relative IC50 (UT-SCC-73 [12]; [19]): 8.51 nM
- relative IC50 (UT-SCC-81 [13]; [15]): 4 nM
- relative IC50 (UT-SCC-81 [13]; [16]): 8.83 nM
- relative IC50 (UT-SCC-81 [13]; [17]): 5.22 nM
- relative IC50 (UT-SCC-81 [13]; [18]): 9.49 nM
- relative IC50 (UT-SCC-81 [13]; [19]): 8.77 nM
- relative IC50 (UT-SCC-8 [14]; [15]): 5.05 nM
- relative IC50 (UT-SCC-8 [14]; [17]): 7.5 nM
- relative IC50 (UT-SCC-8 [14]; [18]): 8.01 nM
- relative IC50 (UT-SCC-8 [14]; [19]): 6.97 nM
Structure (SMILES): COc1ncc(-c2ccc3nccc(-c4ccnnc4)c3c2)cc1NS(=O)(=O)c1ccc(F)cc1F [Omipalisib]
- maximal % inhibition of viability (UT-SCC-24A; [15]): 95.2 ± 1.4%
- maximal % inhibition of viability (UT-SCC-24A; [16]): 89.2 ± 1.7%
- maximal % inhibition of viability (UT-SCC-24A; [17]): 92 ± 1.5%
- maximal % inhibition of viability (UT-SCC-24A; [18]): 85.8 ± 0.99%
- maximal % inhibition of viability (UT-SCC-24A; [19]): 91.6 ± 0.95%
- drug sensitivity score (UT-SCC-24B [1]; [15]): 22.3 ± 0.72 DSS
- drug sensitivity score (UT-SCC-24B [1]; [16]): 22.9 ± 1.3 DSS
- drug sensitivity score (UT-SCC-24B [1]; [17]): 21.7 ± 0.58 DSS
- drug sensitivity score (UT-SCC-24B [1]; [18]): 19.4 ± 0.7 DSS
- drug sensitivity score (UT-SCC-24B [1]; [19]): 21.6 ± 0.49 DSS
- drug sensitivity score (UT-SCC-28 [2]; [15]): 18.7 ± 3.2 DSS
- drug sensitivity score (UT-SCC-28 [2]; [16]): 18.7 ± 1.8 DSS
- drug sensitivity score (UT-SCC-28 [2]; [17]): 18.1 ± 1.6 DSS
- drug sensitivity score (UT-SCC-28 [2]; [19]): 16.8 ± 0.21 DSS
- drug sensitivity score (UT-SCC-40 [3]; [15]): 27.3 ± 0.47 DSS
- drug sensitivity score (UT-SCC-40 [3]; [16]): 21.5 ± 0.32 DSS
- drug sensitivity score (UT-SCC-40 [3]; [17]): 26.4 ± 0.84 DSS
- drug sensitivity score (UT-SCC-40 [3]; [18]): 19.2 ± 1.1 DSS
- drug sensitivity score (UT-SCC-40 [3]; [19]): 20.6 ± 0.46 DSS
- drug sensitivity score (UT-SCC-44 [4]; [15]): 15.7 ± 2.2 DSS
- drug sensitivity score (UT-SCC-44 [4]; [16]): 13.9 ± 1.6 DSS
- drug sensitivity score (UT-SCC-44 [4]; [17]): 14 ± 1.9 DSS
- drug sensitivity score (UT-SCC-44 [4]; [18]): 14.2 ± 2 DSS
- drug sensitivity score (UT-SCC-44 [4]; [19]): 12.4 ± 0.21 DSS
- drug sensitivity score (UT-SCC-73 [5]; [15]): 24.13 ± 0.21 DSS
- drug sensitivity score (UT-SCC-73 [5]; [16]): 23.1 ± 3.8 DSS
- drug sensitivity score (UT-SCC-73 [5]; [17]): 23.83 ± 0.15 DSS
- drug sensitivity score (UT-SCC-73 [5]; [18]): 21.6 ± 0.47 DSS
- drug sensitivity score (UT-SCC-73 [5]; [19]): 22.2 ± 0.8 DSS
- drug sensitivity score (UT-SCC-81 [6]; [15]): 28.53 ± 0.15 DSS
- drug sensitivity score (UT-SCC-81 [6]; [16]): 21.9 ± 1.9 DSS
- drug sensitivity score (UT-SCC-81 [6]; [17]): 26.8 ± 0.32 DSS
- drug sensitivity score (UT-SCC-81 [6]; [18]): 21 ± 0.1 DSS
- drug sensitivity score (UT-SCC-81 [6]; [19]): 22.6 ± 1.5 DSS
- drug sensitivity score (UT-SCC-8 [7]; [15]): 27.5 ± 1 DSS
- drug sensitivity score (UT-SCC-8 [7]; [16]): 24.1 ± 4.4 DSS
- drug sensitivity score (UT-SCC-8 [7]; [17]): 24.5 ± 0.1 DSS
- drug sensitivity score (UT-SCC-8 [7]; [18]): 23.7 ± 0.44 DSS
- drug sensitivity score (UT-SCC-8 [7]; [19]): 25 ± 0.83 DSS
